The text below walks through data of patent EP0788796A1, “URICOSURIC AGENT” (priority 1995, dated 1997).

Series [1] can be described thus: Uric acid excreting and diuretic actions in rats. Format: in vivo, Wistar rats. Particulars: for response vs control in vivo at 300 mg/kg / response vs control in vivo at 1000 mg/kg: Rattus norvegicus, female Wistar rats, urine collected up to 5 h, relative value with control = 100; for response vs control in vivo at 300 mg/kg: 300 mg/kg oral; for response vs control in vivo at 1000 mg/kg: 1000 mg/kg oral; for urine volume: result in words, summary of Table 1. On the procedure: Three female Wistar rats (4-week old) in each group were administered orally with 300 or 1000 mg/kg of a test compound in a volume of 10 ml/kg as suspended in an aqueous solution of 0.5% carboxymethylcellulose sodium or 5% gum arabic; immediately thereafter, the animals were loaded orally with 25 ml/kg of physiological saline and the urine was collected up to 5 h after the administration of the test compound. The collected urine was immediately measured quantitatively and the urinary concentration of uric acid was measured by a urikase method in accordance with the procedure of Kabasakalian et al. [Kabasakalian, P. et al.: Clin Chem., 19, 522-524 (1973)] and the urinary excretion of uric acid was calculated. […]

The next series in a line: Acute toxicity test. Particulars: oral 100 - 1000 mg/kg, female Wistar rats, observed over 24 h. Format: in vivo. How it is done: Three female Wistar rats (4-week old) in each group were administered orally with 100 - 1000 mg/kg of a test compound in a volume of 10 ml/kg as suspended in an aqueous solution of 0.5% carboxymethylcellulose sodium or 5% gum arabic and were subsequently observed over 24 h. Compounds 1 - 6 were as identified above.

The nature of series [2]: Uric acid excreting and diuretic actions in rats. Format: in vivo. Particulars: Rattus norvegicus; 30 mg/kg oral, female Wistar rats, urine collected up to 5 h, relative value with control = 100; read-out: Urine Volume (%).
[3] abbreviates: read-out: Urinary excretion of uric acid (%).

Molecules are shown by their SMILES. Like-named read-outs stand apart in the source and are kept apart here.

For `O=C1CN(S(=O)(=O)C2Cc3ccccc3C2)C(=O)N1` [Compound 5, 1-(indan-2-ylsulfonyl)hydantoin], in series [1] (setting [3]), the response vs control in vivo at 300 mg/kg is 102% and the response vs control in vivo at 1000 mg/kg stood at 144%. Also, in series [1] (read-out: Urine Volume (%)), the response vs control in vivo at 300 mg/kg turned out to be 135% and the response vs control in vivo at 1000 mg/kg amounted to 144%. The “Acute toxicity (Minimal dose causing death: mg/kg)” value (“Acute toxicity” below) in “Acute toxicity test” is listed as >1000 (no death case at 1000) mg/kg.

Regarding `CCCN(CCC)S(=O)(=O)c1ccc(C(=O)O)cc1` [Probenecid, probenecid, reference compound], the response vs control in vivo at 300 mg/kg in series [1] (setting [3]) stood at 78%; in series [1] (read-out: Urine Volume (%)), 60%. Moreover, the response vs control in vivo at 1000 mg/kg stood at 167% in series [1] (setting [3]) and 20% in series [1] (read-out: Urine Volume (%)). Further, the urine volume result in series [1] is listed as “significantly decreased the urine volume”.

Consider `Cc1cc(S(=O)(=O)N2CC(=O)NC2=O)c(C)s1` [Compound 4, 1-(2,5-dimethylthien-3-ylsulfonyl)hydantoin], for which the response vs control in vivo at 300 mg/kg was determined as 104% in series [1] (setting [3]) and 111% in series [1] (read-out: Urine Volume (%)). In addition, the response vs control in vivo at 1000 mg/kg in series [1] (setting [3]) came to 145%; in series [1] (read-out: Urine Volume (%)) it was 207%. In the series “Acute toxicity test”, the “Acute toxicity” value is reported as >1000 (no death case at 1000) mg/kg.

`O=C1CN(S(=O)(=O)C2CCCCC2)C(=O)N1` [Compound 1, 1-(cyclohexylsulfonyl)hydantoin]: in series [1] (setting [3]), the response vs control in vivo at 300 mg/kg came out at 116% and the response vs control in vivo at 1000 mg/kg amounted to 155%. In series [1] (read-out: Urine Volume (%)), the response vs control in vivo at 300 mg/kg is 96% and the response vs control in vivo at 1000 mg/kg stood at 124%. For the same compound, in “Acute toxicity test”, the “Acute toxicity” value is listed as >1000 (no death case at 1000) mg/kg.

`O=C1CN(S(=O)(=O)C2CCCCCC2)C(=O)N1` [Compound 2, 1-(cycloheptylsulfonyl)hydantoin]: the results for the response vs control in vivo at 300 mg/kg in series [1] (setting [3]) and in series [1] (read-out: Urine Volume (%)) were 152% and 159%, respectively. Also, the results for the response vs control in vivo at 1000 mg/kg in series [1] (setting [3]) and in series [1] (read-out: Urine Volume (%)) were 256% and 170%, respectively. Besides, the “Acute toxicity” value in “Acute toxicity test” is given as >1000 (no death case at 1000) mg/kg.

Consider `NS(=O)(=O)c1cc(C(=O)O)c(NCc2ccco2)cc1Cl` [Furosemide, furosemide, reference compound], for which the urine volume result in series [1] is “an increase in the urine volume was observed”. For the same compound, in series [2], the response vs control in vivo at 30 mg/kg is 215%.

With `O=C1CN(S(=O)(=O)C2CCCCCCC2)C(=O)N1` [Compound 3, 1-(cyclooctylsulfonyl)hydantoin], the results for the response vs control in vivo at 300 mg/kg in series [1] (setting [3]) and in series [1] (read-out: Urine Volume (%)) were 103% and 109%, respectively. In addition, the response vs control in vivo at 1000 mg/kg in series [1] (setting [3]) came to 245%; in series [1] (read-out: Urine Volume (%)), 95%. Moreover, the “Acute toxicity” value in “Acute toxicity test” is >1000 (no death case at 1000) mg/kg.

`O=C1CN(S(=O)(=O)c2cc(Cl)ccc2Cl)C(=O)N1` [Compound 6, 1-(2,5-dichlorophenylsulfonyl)hydantoin]: in series [1] (setting [3]), the response vs control in vivo at 300 mg/kg is 96% and the response vs control in vivo at 1000 mg/kg is 151%. For the same compound, in series [1] (read-out: Urine Volume (%)), the response vs control in vivo at 300 mg/kg is 151% and the response vs control in vivo at 1000 mg/kg worked out at 223%. Moreover, the “Acute toxicity” value in “Acute toxicity test” is given as >1000 (no death case at 1000) mg/kg.
